These results are taken from article PMC11876601 (Molecular Systems Biology, 2025).

Read-outs that look alike come from different tables or passages of the source.

One experiment relates to 13 PDAC cell lines. The experiment in a line: Phenotypic drug combination viability screen (ATPlite, 72 h), cell line panel. Particulars: of 13 cell lines; Bliss model. It counts as cell-based, human.
In the next experiment the target is MAP3K4. Particulars: cited from earlier work; for Kd: read-out: KDapp.
A further experiment concerns 30 PDAC cell lines. Particulars: ref Jaaks et al, 2022; cited from earlier work.
A further experiment relates to AsPC-1. The experiment is described as follows: cells. Further details: ATPlite luminescence viability of PDAC cell lines, 11-dose single-agent curves, 4-parameter fit. Particulars: Homo sapiens, ASPC1, 72 h, read-out: EC50 [nM]. An outline of the steps:
(§1)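 Drug-combination screening used cells plated at 1000 to 5000 per well one day before treatment. Final DMSO was 0.2%. Each plate held untreated negative-control wells and 5 µM staurosporine positive-control wells.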

In a further experiment the test system is Capan-1. The experiment in a line: cells. The arrangement: ATPlite luminescence viability of PDAC cell lines, 11-dose single-agent curves, 4-parameter fit. Particulars: Homo sapiens, CAPAN-1, 72 h, read-out: EC50 [nM]. Summed up:
as §1

Another experiment concerns Colo-357. The experiment is described as follows: cells. The arrangement: ATPlite luminescence viability of PDAC cell lines, 11-dose single-agent curves, 4-parameter fit. Particulars: Homo sapiens, COLO357, 72 h, read-out: EC50 [nM]. An outline of the steps: as §1
The subject of another experiment is Dan-G. The experiment is described as follows: cells. Further details: ATPlite luminescence viability of PDAC cell lines, 11-dose single-agent curves, 4-parameter fit. Particulars: 72 h, read-out: EC50 [nM]. An outline of the steps:
as §1

In a further experiment the test system is FAMPAC. The experiment is described as follows: cells. Further details: ATPlite luminescence viability of PDAC cell lines, 11-dose single-agent curves, 4-parameter fit. Particulars: 72 h, read-out: EC50 [nM]. An outline of the steps: as §1
The test system of another experiment is HPDE. The experiment in a line: cells. Particulars: HPDE, 72 h, read-out: EC50 [nM]. Further details: ATPlite luminescence viability of PDAC cell lines, 11-dose single-agent curves, 4-parameter fit. An outline of the steps: as §1
A further experiment concerns HuP-T4. The experiment in a line: cells. The arrangement: ATPlite luminescence viability of PDAC cell lines, 11-dose single-agent curves, 4-parameter fit. Particulars: Homo sapiens, HuP-T4, 72 h, read-out: EC50 [nM]. Summed up:
as §1

The next experiment has as its system MiaPaCa-2. The experiment in a line: cells. Particulars: Homo sapiens, MIA PaCa-2, 72 h, read-out: EC50 [nM]. The arrangement: ATPlite luminescence viability of PDAC cell lines, 11-dose single-agent curves, 4-parameter fit. Summed up: as §1
A further experiment deals with PSN-1. The experiment in a line: cells. Further details: ATPlite luminescence viability of PDAC cell lines, 11-dose single-agent curves, 4-parameter fit. Particulars: Homo sapiens, PSN1, 72 h, read-out: EC50 [nM]. Summed up:
as §1

The next experiment has as its system PaTu-8988-T. The experiment is described as follows: cells. The arrangement: ATPlite luminescence viability of PDAC cell lines, 11-dose single-agent curves, 4-parameter fit. Particulars: Homo sapiens, PaTu 8988t, 72 h, read-out: EC50 [nM]. An outline of the steps:
as §1

The subject of the next experiment is Suit2-07. The experiment in a line: cells. Further details: ATPlite luminescence viability of PDAC cell lines, 11-dose single-agent curves, 4-parameter fit. Particulars: 72 h, read-out: EC50 [nM]. An outline of the steps: as §1
Another experiment relates to WEE1. Particulars: WEE1, 4 cell line mix lysate, Kinobeads y, ref Klaeger et al. (2017); cited from earlier work.
The target in the next experiment is ADK. Particulars: 4 cell line mix lysate, Kinobeads y, ref Klaeger et al. (2017), cited from earlier work.
Another experiment relates to EPHB6. The arrangement: method as in Klaeger et al. (2017). Particulars: EPHB6, 4 cell line mix lysate, Kinobeads y, ref Klaeger et al. (2017), cited from earlier work.
The target in another experiment is CSNK2B. Particulars: 4 cell line mix lysate, Kinobeads y, ref Klaeger et al. (2017), cited from earlier work.
In a further experiment the test system is CSNK2A2. Particulars: CSNK2A2, 4 cell line mix lysate, Kinobeads y, ref Klaeger et al. (2017), cited from earlier work.
The next experiment concerns the target GAK. Particulars: 4 cell line mix lysate, Kinobeads y, ref Klaeger et al. (2017), cited from earlier work.
The next experiment addresses EIF3J. Particulars: 4 cell line mix lysate, Kinobeads y, ref Klaeger et al. (2017), cited from earlier work.
The test system of the next experiment is CSNK2A1;CSNK2A3. Particulars: CSNK2A1;CSNK2A3, 4 cell line mix lysate, Kinobeads y, ref Klaeger et al. (2017), cited from earlier work.
The next experiment has as its system INPPL1. Further details: method as in Klaeger et al. (2017). Particulars: INPPL1, 4 cell line mix lysate, Kinobeads y, ref Klaeger et al. (2017), cited from earlier work.
The subject of a further experiment is NEK3. Further details: method as in Klaeger et al. (2017). Particulars: NEK3, 4 cell line mix lysate, Kinobeads y, ref Klaeger et al. (2017), cited from earlier work.
A further experiment has as its system AZI2. Particulars: AZI2, 4 cell line mix lysate, Kinobeads y, ref Klaeger et al. (2017), cited from earlier work.
A further experiment relates to TBK1. Particulars: TBK1, 4 cell line mix lysate, Kinobeads y, ref Klaeger et al. (2017); cited from earlier work.
The subject of another experiment is GRB2. The arrangement: method as in Klaeger et al. (2017). Particulars: GRB2, 4 cell line mix lysate, Kinobeads y, ref Klaeger et al. (2017), cited from earlier work.
Another experiment concerns TBKBP1. Particulars: TBKBP1, 4 cell line mix lysate, Kinobeads y, ref Klaeger et al. (2017), cited from earlier work.
A further experiment addresses TANK. Particulars: 4 cell line mix lysate, Kinobeads y, ref Klaeger et al. (2017), cited from earlier work.
The subject of another experiment is ADCK1. The arrangement: method as in Klaeger et al. (2017). Particulars: ADCK1, 4 cell line mix lysate, Kinobeads y, ref Klaeger et al. (2017), cited from earlier work.
For another experiment, the target named is BCR. Particulars: 4 cell line mix lysate, Kinobeads y, ref Klaeger et al. (2017), cited from earlier work.
The next experiment deals with IKBKE. Particulars: 4 cell line mix lysate, Kinobeads y, ref Klaeger et al. (2017); cited from earlier work.
A further experiment concerns ABL1. Particulars: ABL1, 4 cell line mix lysate, Kinobeads y, ref Klaeger et al. (2017); cited from earlier work.
[1] abbreviates: MAP3K4, 4 cell line mix lysate, Kinobeads y, ref Klaeger et al. (2017).

Turning to `C=CCn1c(=O)c2cnc(Nc3ccc(N4CCN(C)CC4)cc3)nc2n1-c1cccc(C(C)(C)O)n1` [Adavosertib], the “number of cell lines with synergy with GEM” value with 13 PDAC cell lines is […]. Besides, the Kd on MAP3K4 (Kinobeads, ref Klaeger et al, 2017a, Reinecke et al, 2023a) is 52 nM. For the same molecule, in the experiment on 30 PDAC cell lines, the “synergy with GEM” value is recorded as “to a lesser extent”. Further, the concentration giving a half-maximal response (EC50) in the experiment on AsPC-1 worked out at 171 nM; in the experiment with Capan-1, 327 nM; with Colo-357, 135 nM; in the experiment with Dan-G it was 147 nM; with FAMPAC it was 268 nM; with HPDE, 946 nM. The EC50 turned out to be 5570 nM with HuP-T4; 244 nM with MiaPaCa-2; 464 nM in the experiment on PSN-1; 154 nM in the experiment on PaTu-8988-T; 206 nM with Suit2-07.

Consider `C=CCn1c(=O)c2cnc(Nc3ccc(N4CCN(C)CC4)cc3)nc2n1-c1cccc(C(C)(C)O)n1` [Adavosertib (MK-1775)], for which the concentration giving a half-maximal response (EC50) is […] with WEE1; 12.6 nM in the experiment with ADK; 77.5 nM in the experiment with MAP3K4 (setting [1]); 549 nM with EPHB6; […] in the experiment with CSNK2B; 428 nM in the experiment on CSNK2A2. Also, the concentration giving a half-maximal response (EC50) in the experiment with GAK was 745 nM; with EIF3J, 500 nM; in the experiment with CSNK2A1;CSNK2A3, 627 nM; in the experiment on INPPL1, 1470 nM; in the experiment on NEK3 it was 980 nM; with AZI2 it was […]. Also, the EC50 in the experiment with TBK1 is […]; in the experiment with GRB2, 2710 nM; with TBKBP1, 2180 nM; in the experiment with TANK it was 2870 nM; in the experiment on ADCK1, 3050 nM; in the experiment on BCR, 3990 nM. The concentration giving a half-maximal response (EC50) is […] in the experiment on IKBKE and 6340 nM in the experiment with ABL1. Besides, the Kd is 12.6 nM on ADK (read-out: KDapp); 52 nM at MAP3K4 (setting [1]); 337 nM at EPHB6 (read-out: KDapp); […] on CSNK2B (read-out: KDapp); […] at CSNK2A2 (read-out: KDapp); […] on GAK (read-out: KDapp). Also, the Kd was 500 nM on EIF3J (read-out: KDapp); 627 nM at CSNK2A1;CSNK2A3 (read-out: KDapp); 712 nM at INPPL1 (read-out: KDapp); 837 nM on NEK3 (read-out: KDapp); 1230 nM at AZI2 (read-out: KDapp); […] on GRB2 (read-out: KDapp). Also, the Kd at TBKBP1 (read-out: KDapp) was […]; at TANK (read-out: KDapp), […]; at ADCK1 (read-out: KDapp), […]; at BCR (read-out: KDapp), […]. Further, the pKDapp at ADK was 7.90; at MAP3K4 (setting [1]), 7.28; on EPHB6, 6.47; at CSNK2B, […]; on CSNK2A2 it was […]; at GAK it was […]. The pKDapp at EIF3J is 6.30; on CSNK2A1;CSNK2A3 it was 6.20; at INPPL1, 6.15; on NEK3, 6.08; on AZI2 it was 5.91; on GRB2, […]. In addition, the pKDapp on TBKBP1 is given as […]; at TANK, […]; on ADCK1 it was […]; at BCR it was […].

Turning to `NC(=O)Nc1cc(-c2cccc(F)c2)sc1C(=O)N[C@H]1CCCNC1` [AZD7762], the “synergy with GEM” value with 30 PDAC cell lines was “nearly half of the cell lines”.
